From patent US5210193A, “Piperazine derivatives” (American Cyanamid Company, priority 1990, dated 1993)
In brackets after ≈: the same amount, converted by molar mass. Like-named read-outs stand apart in the source and are kept apart here.

What was measured:
Test in all cases: in vitro antibacterial MIC, agar plate dilution
Format in all cases: cell-based
[1] = tested on: Pseudomonas aeruginosa VGH 84-3; conditions: Pseudomonas aeruginosa, VGH843, 18 h, 35° C., read-out: MIC
Outline: (§1)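 Minimal inhibitory concentrations came from agar plate dilution in Mueller-Hinton medium. Each organism was delivered at roughly 10^4 CFU by Steers replicator. Plates were read for visible growth after 18 hours at 35° C, values in mcg/ml.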

[2] = tested on: Proteus rettgeri IO 83-21; conditions: Providencia rettgeri, IO8321, 18 h, 35° C., read-out: MIC
Outline: as §1

[3] = tested on: Morganella morganii CMC 84-38; conditions: Morganella morganii, CMC8438, 18 h, 35° C., read-out: MIC
Outline: as §1

[4] = tested on: Klebsiella pneumoniae IO 83-5; conditions: Klebsiella pneumoniae, IO835, 18 h, 35° C., read-out: MIC
Outline: as §1

[5] = tested on: Staphylococcus aureus ATTC 29213; conditions: 35° C.
Outline: as §1

[6] = tested on: Streptococcus faecalis UCI 85-30; conditions: Enterococcus faecalis, UCI8530, 18 h, 35° C., read-out: MIC
Outline: as §1

[7] = tested on: Staphylococcus aureus VGH 84-45; conditions: Staphylococcus aureus, VGH8445, 18 h, 35° C., read-out: MIC
Outline: as §1

[8] = tested on: Pseudomonas aeruginosa LL-1244; conditions: Pseudomonas aeruginosa, LL1244, 18 h, 35° C., read-out: MIC
Outline: as §1

[9] = tested on: Staphylococcus aureus K 82-26; conditions: Staphylococcus aureus, K8226, 18 h, 35° C., read-out: MIC
Outline: as §1

[10] = tested on: Escherichia coli MOR 84-20; conditions: Escherichia coli, MOR8420, 18 h, 35° C., read-out: MIC
Outline: as §1

[11] = tested on: Serratia marcescens MOR 84-41; conditions: Serratia marcescens, MOR8441, 18 h, 35° C., read-out: MIC
Outline: as §1

[12] = tested on: Serratia marcescens IO 83-63; conditions: IO8363, 18 hours, 35° C.
Outline: as §1

[13] = tested on: Escherichia coli CMC 84-50; conditions: Escherichia coli, CMC8450, 18 h, 35° C., read-out: MIC
Outline: as §1

[14] = tested on: Escherichia coli ATCC 25922; conditions: Escherichia coli, ATCC25922, 18 h, 35° C., read-out: MIC
Outline: as §1

Citrobacter div. K 82-24 = conditions: Citrobacter, DIV.K8224, 18 h, 35° C., read-out: MIC
Outline: as §1

[15] = tested on: Klebsiella pneumoniae MOR 84-24; conditions: Klebsiella pneumoniae, MOR8424, 18 h, 35° C., read-out: MIC
Outline: as §1

[16] = tested on: Pseudomonas aeruginosa VGH 84-4; conditions: Pseudomonas aeruginosa, VGH844, 18 h, 35° C., read-out: MIC
Outline: as §1

[17] = tested on: Proteus rettgeri CMC 84-41; conditions: Providencia rettgeri, CMC8441, 18 h, 35° C., read-out: MIC
Outline: as §1

[18] = tested on: Staphylococcus aureus CMC 83-131; conditions: Staphylococcus aureus, CMC83131, 18 h, 35° C., read-out: MIC
Outline: as §1

[19] = tested on: Pseudomonas aeruginosa K 84-16; conditions: Pseudomonas aeruginosa, K8416, 18 h, 35° C., read-out: MIC
Outline: as §1

[20] = tested on: Streptococcus faecalis VGH 84-65; conditions: Enterococcus faecalis, VGH8465, 18 h, 35° C., read-out: MIC
Outline: as §1

[21] = tested on: Enterobacter cloacae K 84-10; conditions: Enterobacter cloacae, K8410, 18 h, 35° C., read-out: MIC
Outline: as §1

[22] = tested on: Morganella morganii CMC 84-37; conditions: Morganella morganii, CMC8437, 18 h, 35° C., read-out: MIC
Outline: as §1

Escherichia coli LL 311 = conditions: Escherichia coli, LL311, 18 h, 35° C., read-out: MIC
Outline: as §1

[23] = tested on: Enterobacter cloacae VGH 84-39; conditions: Enterobacter cloacae, VGH8439, 18 h, 35° C., read-out: MIC
Outline: as §1

[24] = tested on: Staphylococcus aureus VGH 84-47; conditions: Staphylococcus aureus, VGH8447, 18 h, 35° C., read-out: MIC
Outline: as §1

[25] = tested on: Serratia marcescens CMC 83-74; conditions: Serratia marcescens, CMC8374, 18 h, 35° C., read-out: MIC
Outline: as §1

[26] = tested on: Klebsiella pneumoniae CMC 84-31; conditions: Klebsiella pneumoniae, CMC8431, 18 h, 35° C., read-out: MIC
Outline: as §1

[27] = tested on: Streptococcus faecalis UCI 85-19; conditions: Enterococcus faecalis, UCI8519, 18 h, 35° C., read-out: MIC
Outline: as §1

[28] = tested on: Serratia marcescens VGH 84-30; conditions: Serratia marcescens, VGH8430, 18 h, 35° C., read-out: MIC
Outline: as §1

[29] = tested on: Streptococcus faecalis VGH 84-69; conditions: Enterococcus faecalis, VGH8469, 18 h, 35° C., read-out: MIC
Outline: as §1

[30] = tested on: Escherichia coli CMC 84-11; conditions: Escherichia coli, CMC8411, 18 h, 35° C., read-out: MIC
Outline: as §1

[31] = Staphylococcus aureus, ATTC29213, 18 h, read-out: MIC

Row | MIC [1] [µg/mL] | MIC [2] [µg/mL] | MIC [3] [µg/mL] | MIC [4] [µg/mL] | MIC [5, 31] [µg/mL] | MIC [6] [µg/mL] | MIC [7] [µg/mL] | MIC [8] [µg/mL] | MIC [9] [µg/mL] | MIC [10] [µg/mL] | MIC [11] [µg/mL] | MIC [12] [µg/mL] | MIC [13] [µg/mL] | MIC (Citrobacter div. K 82-24) [µg/mL] | MIC [15] [µg/mL] | MIC [16] [µg/mL] | MIC [17] [µg/mL] | MIC [18] [µg/mL] | MIC [19] [µg/mL] | MIC [20] [µg/mL] | Compound | further results
1 | 8 (≈ 21 µM) | 0.008 (≈ 0.021 µM) | 0.008 (≈ 0.021 µM) | 0.06 (≈ 0.157 µM) | 0.25 (≈ 0.656 µM) | 2 (≈ 5.24 µM) | 0.12 (≈ 0.315 µM) | 4 (≈ 10.5 µM) | 1 (≈ 2.62 µM) | 0.004 (≈ 0.0105 µM) | 0.06 (≈ 0.157 µM) | 0.25 (≈ 0.656 µM) | 0.004 (≈ 0.0105 µM) | 0.002 (≈ 0.00524 µM) | 0.06 (≈ 0.157 µM) | 2 (≈ 5.24 µM) | 0.03 (≈ 0.0787 µM) | 0.25 (≈ 0.656 µM) | 4 (≈ 10.5 µM) | 4 (≈ 10.5 µM) | CN1CCN(c2c(F)c(F)c3c(=O)c(C(=O)O)cn(C4CC4)c3c2F)CC1 [Example 111, 1Cyclopropyl-5,6,8-trifluoro-1,4-dihydro-7-(4-methyl-1-piperazinyl) -4-oxo-3-quinolinecarboxylic acid] | MIC [21]: 0.004 µg/mL (≈ 0.0105 µM); MIC [22]: 0.03 µg/mL (≈ 0.0787 µM); MIC (Escherichia coli LL 311): 0.015 µg/mL (≈ 0.0393 µM); MIC [23]: 0.004 µg/mL (≈ 0.0105 µM); MIC [24]: 0.12 µg/mL (≈ 0.315 µM); MIC [25]: 4 µg/mL (≈ 10.5 µM); MIC [26]: 0.015 µg/mL (≈ 0.0393 µM); MIC [27]: 4 µg/mL (≈ 10.5 µM); MIC [28]: 2 µg/mL (≈ 5.24 µM); MIC [29]: 2 µg/mL (≈ 5.24 µM); MIC [30]: 0.015 µg/mL (≈ 0.0393 µM)
2 | > 16 | 16 (≈ 38.7 µM) | 8 (≈ 19.3 µM) | 16 (≈ 38.7 µM) | 0.5 (≈ 1.21 µM) | > 16 | 0.5 (≈ 1.21 µM) | 128 (≈ 310 µM) | 16 (≈ 38.7 µM) | 4 (≈ 9.67 µM) | > 16 | > 16 | 4 (≈ 9.67 µM) | 8 (≈ 19.3 µM) | 16 (≈ 38.7 µM) | 128 (≈ 310 µM) | 4 (≈ 9.67 µM) | 2 (≈ 4.84 µM) | > 16 | 8 (≈ 19.3 µM) | CCn1cc(C(=O)O)c(=O)c2cc(F)c(N3CCN(C)C(c4ccnn4C)C3)cc21 (centres unmarked) [Example 110, 1-Ethyl-6-fluoro-1,4-dihydro-7-[4-methyl-3-(1-methyl-1H-pyrazol-5-yl) -1-piperazinyl]-4-oxo-3-quinolinecarboxylic acid] | MIC ([5]; 18 hours): 1 µg/mL (≈ 2.42 µM); MIC [14]: 1 µg/mL (≈ 2.42 µM); MIC [21]: 4 µg/mL (≈ 9.67 µM); MIC (Escherichia coli LL 311): 2 µg/mL (≈ 4.84 µM); MIC [23]: 8 µg/mL (≈ 19.3 µM); MIC [24]: 1 µg/mL (≈ 2.42 µM); MIC [25]: > 16 µg/mL; MIC [26]: 8 µg/mL (≈ 19.3 µM); MIC [27]: 8 µg/mL (≈ 19.3 µM); MIC [28]: > 128 µg/mL; MIC [29]: 16 µg/mL (≈ 38.7 µM); MIC [30]: 2 µg/mL (≈ 4.84 µM)

Row | Compound | MIC [1] [µg/mL] | MIC [2] [µg/mL] | MIC [3] [µg/mL] | MIC [4] [µg/mL] | MIC [5, 31] [µg/mL] | MIC [6] [µg/mL] | MIC [7] [µg/mL] | MIC [8] [µg/mL] | MIC [9] [µg/mL] | MIC [10] [µg/mL] | MIC [11] [µg/mL] | MIC [12] [µg/mL] | MIC [13] [µg/mL] | MIC (Citrobacter div. K 82-24) [µg/mL] | MIC [15] [µg/mL] | MIC [16] [µg/mL] | MIC [17] [µg/mL] | MIC [18] [µg/mL] | MIC [19] [µg/mL] | MIC [20] [µg/mL] | further results
3 | O=C(O)c1cn(C2CC2)c2cc(N3CCNC(CF)C3)c(F)cc2c1=O (centres unmarked) [Example 131, 1-Cyclopropyl-6-fluoro-7-[3-(fluoromethyl)-1-piperazinyl]-1,4-dihydro-4-oxo-3-quinolinecarboxylic acid] | 8 (≈ 22 µM) | 0.12 (≈ 0.33 µM) | 0.06 (≈ 0.165 µM) | 0.12 (≈ 0.33 µM) | 0.5 (≈ 1.38 µM) | 2 (≈ 5.5 µM) | 0.25 (≈ 0.688 µM) | 2 (≈ 5.5 µM) | 0.5 (≈ 1.38 µM) | 0.03 (≈ 0.0826 µM) | 0.12 (≈ 0.33 µM) | 0.5 (≈ 1.38 µM) | 0.06 (≈ 0.165 µM) | 0.06 (≈ 0.165 µM) | 0.12 (≈ 0.33 µM) | 1 (≈ 2.75 µM) | 0.06 (≈ 0.165 µM) | 1 (≈ 2.75 µM) | 1 (≈ 2.75 µM) | 1 (≈ 2.75 µM) | MIC [14]: 0.015 µg/mL (≈ 0.0413 µM); MIC [21]: 0.03 µg/mL (≈ 0.0826 µM); MIC [22]: 0.5 µg/mL (≈ 1.38 µM); MIC (Escherichia coli LL 311): 0.015 µg/mL (≈ 0.0413 µM); MIC [23]: 0.06 µg/mL (≈ 0.165 µM); MIC [24]: 0.25 µg/mL (≈ 0.688 µM); MIC [25]: 4 µg/mL (≈ 11 µM); MIC [26]: 0.06 µg/mL (≈ 0.165 µM); MIC [27]: 2 µg/mL (≈ 5.5 µM); MIC [28]: 2 µg/mL (≈ 5.5 µM); MIC [29]: 1 µg/mL (≈ 2.75 µM); MIC [30]: 0.015 µg/mL (≈ 0.0413 µM)
